Assay results from ChEMBL document CHEMBL5442741, “ASAP - In vitro kinase profile” (2024).
“And” between values parts separate entries of the source, which are not always exact repeats. Equal entries are not always repeated.

Tests used:
[1] = target: PI3-kinase p110-alpha/p85-alpha (Homo sapiens) (UniProt P27986+P42336); test: Enzymatic radiometric [Km ATP] KinaseProfiler LeadHunter assay, kinase: PI3 Kinase (p110-alpha/p85-alpha), catalogue number: 14-602KP The assay has been performed by Eurofins Discovery.; format: protein-complex assay; details: ATP concentration 200.0 uM, Test compound concentration 10.0 uM
[2] = target: Glycogen synthase kinase-3 beta (Homo sapiens) (UniProt P49841); test: Enzymatic radiometric [Km ATP] KinaseProfiler LeadHunter assay, kinase: GSK3-beta, catalogue number: 14-306KP The assay has been performed by Eurofins Discovery.; details: ATP concentration 15.0 uM, Test compound concentration 10.0 uM
Glycogen synthase kinase-3 beta (Homo sapiens), sequence (P49841 whole entry, looked up): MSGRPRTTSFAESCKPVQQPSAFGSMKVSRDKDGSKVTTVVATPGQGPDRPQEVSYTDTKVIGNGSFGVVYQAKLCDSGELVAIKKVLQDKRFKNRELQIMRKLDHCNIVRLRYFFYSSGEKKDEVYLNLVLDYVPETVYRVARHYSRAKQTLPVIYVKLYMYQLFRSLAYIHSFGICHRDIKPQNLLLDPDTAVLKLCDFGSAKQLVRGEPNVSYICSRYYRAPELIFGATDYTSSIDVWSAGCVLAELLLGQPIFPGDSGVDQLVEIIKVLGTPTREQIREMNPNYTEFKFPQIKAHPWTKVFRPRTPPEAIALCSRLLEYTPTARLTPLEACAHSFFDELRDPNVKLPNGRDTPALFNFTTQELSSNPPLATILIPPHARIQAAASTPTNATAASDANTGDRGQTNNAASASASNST

[3] = target: T1, Serine/threonine-protein kinase 4 (Homo sapiens) (UniProt Q13043); test: Enzymatic radiometric [Km ATP] KinaseProfiler LeadHunter assay, kinase: MST1, catalogue number: 14-624KP The assay has been performed by Eurofins Discovery.; details: ATP concentration 90.0 uM, Test compound concentration 10.0 uM
T1 sequence (whole entry): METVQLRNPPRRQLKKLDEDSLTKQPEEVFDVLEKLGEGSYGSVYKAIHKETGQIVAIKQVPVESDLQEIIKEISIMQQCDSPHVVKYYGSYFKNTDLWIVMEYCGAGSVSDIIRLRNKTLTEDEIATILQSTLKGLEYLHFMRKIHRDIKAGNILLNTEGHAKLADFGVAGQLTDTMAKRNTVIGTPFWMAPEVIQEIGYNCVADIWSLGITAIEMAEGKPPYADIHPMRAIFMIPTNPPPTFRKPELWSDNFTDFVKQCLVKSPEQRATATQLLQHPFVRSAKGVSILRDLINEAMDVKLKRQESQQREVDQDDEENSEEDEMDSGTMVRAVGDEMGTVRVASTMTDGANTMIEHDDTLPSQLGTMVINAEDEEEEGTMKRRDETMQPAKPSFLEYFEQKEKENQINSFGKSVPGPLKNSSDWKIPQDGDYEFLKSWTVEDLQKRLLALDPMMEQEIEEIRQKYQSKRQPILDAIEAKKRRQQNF

[4] = target: MAP kinase-activated protein kinase 2 (Homo sapiens) (UniProt P49137); test: Enzymatic radiometric [Km ATP] KinaseProfiler LeadHunter assay, kinase: MAPKAP-K2, catalogue number: 14-337KP The assay has been performed by Eurofins Discovery.; details: ATP concentration 90.0 uM, Test compound concentration 10.0 uM
MAP kinase-activated protein kinase 2 (Homo sapiens), sequence (P49137 whole entry, looked up, canonical isoform): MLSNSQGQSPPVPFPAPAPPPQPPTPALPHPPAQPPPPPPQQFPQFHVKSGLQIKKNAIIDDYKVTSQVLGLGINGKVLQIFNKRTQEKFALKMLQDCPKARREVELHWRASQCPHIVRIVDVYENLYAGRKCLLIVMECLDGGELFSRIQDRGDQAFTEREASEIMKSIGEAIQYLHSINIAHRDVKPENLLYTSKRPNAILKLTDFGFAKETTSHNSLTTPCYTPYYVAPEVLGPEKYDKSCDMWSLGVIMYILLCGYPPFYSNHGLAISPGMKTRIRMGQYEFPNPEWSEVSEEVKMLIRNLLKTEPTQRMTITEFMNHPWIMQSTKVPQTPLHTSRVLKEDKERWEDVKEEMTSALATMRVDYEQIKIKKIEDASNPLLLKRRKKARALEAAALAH

[5] = target: Casein kinase I isoform gamma-1 (Homo sapiens) (UniProt Q9HCP0); test: Enzymatic radiometric [Km ATP] KinaseProfiler LeadHunter assay, kinase: CK1-gamma1, catalogue number: 14-711KP The assay has been performed by Eurofins Discovery.; details: ATP concentration 15.0 uM, Test compound concentration 10.0 uM
Casein kinase I isoform gamma-1 (Homo sapiens), sequence (Q9HCP0 whole entry, looked up, canonical isoform): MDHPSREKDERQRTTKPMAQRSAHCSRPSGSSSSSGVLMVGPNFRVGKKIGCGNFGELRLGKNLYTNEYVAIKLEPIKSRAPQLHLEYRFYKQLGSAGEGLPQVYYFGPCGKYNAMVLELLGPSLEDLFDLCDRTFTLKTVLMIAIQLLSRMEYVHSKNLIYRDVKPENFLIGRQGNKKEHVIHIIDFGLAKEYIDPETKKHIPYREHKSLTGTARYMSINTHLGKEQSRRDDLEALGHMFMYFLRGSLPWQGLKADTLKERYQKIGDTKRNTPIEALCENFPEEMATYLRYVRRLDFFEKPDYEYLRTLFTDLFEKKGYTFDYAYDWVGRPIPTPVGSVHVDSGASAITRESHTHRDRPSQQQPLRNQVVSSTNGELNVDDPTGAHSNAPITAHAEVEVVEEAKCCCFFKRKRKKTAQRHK

[6] = target: T2, Tyrosine-protein kinase receptor TYRO3 (Homo sapiens) (UniProt Q06418); test: Enzymatic radiometric [Km ATP] KinaseProfiler LeadHunter assay, kinase: Rse, catalogue number: 14-535KP The assay has been performed by Eurofins Discovery.; details: ATP concentration 45.0 uM, Test compound concentration 10.0 uM
T2 sequence (whole entry): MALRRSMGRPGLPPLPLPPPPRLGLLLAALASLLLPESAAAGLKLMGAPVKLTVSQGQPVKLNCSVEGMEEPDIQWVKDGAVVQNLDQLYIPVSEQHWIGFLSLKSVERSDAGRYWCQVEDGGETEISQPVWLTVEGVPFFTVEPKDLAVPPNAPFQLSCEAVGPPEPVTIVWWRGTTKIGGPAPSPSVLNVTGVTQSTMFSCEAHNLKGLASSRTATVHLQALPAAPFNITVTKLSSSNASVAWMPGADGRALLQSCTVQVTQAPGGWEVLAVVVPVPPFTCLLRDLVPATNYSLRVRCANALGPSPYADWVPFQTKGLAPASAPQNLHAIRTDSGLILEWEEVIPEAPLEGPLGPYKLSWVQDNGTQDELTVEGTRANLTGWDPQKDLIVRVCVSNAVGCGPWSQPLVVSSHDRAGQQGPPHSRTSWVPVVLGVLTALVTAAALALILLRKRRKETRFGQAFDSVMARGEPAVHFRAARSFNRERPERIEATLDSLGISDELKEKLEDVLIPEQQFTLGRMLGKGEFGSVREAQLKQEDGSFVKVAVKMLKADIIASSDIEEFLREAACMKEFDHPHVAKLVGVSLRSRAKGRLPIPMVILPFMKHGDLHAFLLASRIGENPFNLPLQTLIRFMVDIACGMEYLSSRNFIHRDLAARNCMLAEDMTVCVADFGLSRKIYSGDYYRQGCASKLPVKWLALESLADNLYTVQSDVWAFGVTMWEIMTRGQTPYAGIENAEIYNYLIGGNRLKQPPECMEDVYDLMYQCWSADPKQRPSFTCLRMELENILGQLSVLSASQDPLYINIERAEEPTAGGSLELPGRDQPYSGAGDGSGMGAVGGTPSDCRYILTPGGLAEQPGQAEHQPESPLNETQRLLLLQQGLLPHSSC

[7] = target: Phosphatidylinositol 4,5-bisphosphate 3-kinase catalytic subunit gamma isoform (Homo sapiens) (UniProt P48736); test: Enzymatic radiometric [Km ATP] KinaseProfiler LeadHunter assay, kinase: PI3 Kinase (p120-gamma), catalogue number: 14-558KP The assay has been performed by Eurofins Discovery.; details: ATP concentration 100.0 uM, Test compound concentration 10.0 uM
Phosphatidylinositol 4,5-bisphosphate 3-kinase catalytic subunit gamma isoform (Homo sapiens), sequence (P48736 whole entry, looked up, canonical isoform): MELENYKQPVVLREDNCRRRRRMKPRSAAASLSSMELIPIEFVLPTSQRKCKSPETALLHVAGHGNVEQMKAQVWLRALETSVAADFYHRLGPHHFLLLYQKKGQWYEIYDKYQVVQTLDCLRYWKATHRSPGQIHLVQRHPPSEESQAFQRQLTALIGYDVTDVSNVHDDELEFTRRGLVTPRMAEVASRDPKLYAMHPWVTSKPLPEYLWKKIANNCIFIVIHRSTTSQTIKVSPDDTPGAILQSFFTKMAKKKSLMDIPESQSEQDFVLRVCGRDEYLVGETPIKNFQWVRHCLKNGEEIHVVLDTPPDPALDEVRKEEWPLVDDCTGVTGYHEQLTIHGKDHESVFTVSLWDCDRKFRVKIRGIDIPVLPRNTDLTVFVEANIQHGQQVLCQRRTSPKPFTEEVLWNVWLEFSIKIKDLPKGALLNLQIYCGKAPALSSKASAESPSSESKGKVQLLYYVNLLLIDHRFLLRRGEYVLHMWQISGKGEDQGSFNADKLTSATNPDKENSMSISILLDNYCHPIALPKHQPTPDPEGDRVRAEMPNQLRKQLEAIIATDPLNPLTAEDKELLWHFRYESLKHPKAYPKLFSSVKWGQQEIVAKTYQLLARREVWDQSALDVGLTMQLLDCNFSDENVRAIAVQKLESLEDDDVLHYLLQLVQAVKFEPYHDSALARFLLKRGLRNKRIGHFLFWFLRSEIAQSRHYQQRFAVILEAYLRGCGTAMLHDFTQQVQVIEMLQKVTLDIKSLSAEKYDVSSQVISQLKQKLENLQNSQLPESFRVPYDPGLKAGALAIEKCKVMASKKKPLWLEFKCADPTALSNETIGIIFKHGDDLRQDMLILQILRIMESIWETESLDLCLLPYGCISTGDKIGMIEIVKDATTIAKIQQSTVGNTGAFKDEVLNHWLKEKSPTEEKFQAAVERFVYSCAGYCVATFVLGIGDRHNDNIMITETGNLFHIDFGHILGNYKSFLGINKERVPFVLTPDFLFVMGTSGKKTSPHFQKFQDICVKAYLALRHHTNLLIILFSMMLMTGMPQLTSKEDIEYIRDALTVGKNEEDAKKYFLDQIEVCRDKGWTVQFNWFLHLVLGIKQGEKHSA

[8] = target: T3, cGMP-dependent protein kinase 1 (Homo sapiens) (UniProt Q13976); test: Enzymatic radiometric [Km ATP] KinaseProfiler LeadHunter assay, kinase: PKG1-alpha, catalogue number: 14-688KP The assay has been performed by Eurofins Discovery.; details: ATP concentration 90.0 uM, Test compound concentration 10.0 uM
T3 sequence (whole entry): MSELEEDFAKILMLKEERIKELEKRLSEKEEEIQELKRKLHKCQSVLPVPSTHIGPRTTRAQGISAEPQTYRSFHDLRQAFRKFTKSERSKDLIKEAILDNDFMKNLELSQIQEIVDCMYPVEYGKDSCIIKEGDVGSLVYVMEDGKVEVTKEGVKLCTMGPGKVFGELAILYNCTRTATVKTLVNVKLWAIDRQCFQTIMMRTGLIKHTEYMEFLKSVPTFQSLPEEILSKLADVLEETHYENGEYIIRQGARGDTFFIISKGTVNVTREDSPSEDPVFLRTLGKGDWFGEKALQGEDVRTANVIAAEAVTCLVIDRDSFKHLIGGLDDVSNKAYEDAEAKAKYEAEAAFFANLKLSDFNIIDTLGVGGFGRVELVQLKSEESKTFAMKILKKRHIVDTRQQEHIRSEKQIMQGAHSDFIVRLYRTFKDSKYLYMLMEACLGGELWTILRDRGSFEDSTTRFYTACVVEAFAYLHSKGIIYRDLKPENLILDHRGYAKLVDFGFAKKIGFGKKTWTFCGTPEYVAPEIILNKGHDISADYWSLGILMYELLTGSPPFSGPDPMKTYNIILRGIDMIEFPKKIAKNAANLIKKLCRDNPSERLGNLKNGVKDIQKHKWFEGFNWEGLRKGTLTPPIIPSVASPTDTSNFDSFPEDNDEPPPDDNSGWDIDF

Row | Compound | Activity [1] | Activity [2] | Activity [3] | Activity [4] | Activity [5] | Activity [6] | Activity [7] | Activity [8]
1 | CC(C)[C@@H](Nc1ncnc2[nH]ccc12)c1ccc2c(c1)S(=O)(=O)CCC2 | 104% | 107% | 88% | 105% | 102% | 115% | 103% | 88%
2 | C[C@H](C(=O)O)[C@@H](NC(=O)c1ncnc2[nH]ccc12)c1ccc(Br)cc1 | 100% | 93% | 121% | 98% | 92% | 87% | 97% | 118%
3 | CC(C)[C@H](Nc1ncnc2[nH]c(-c3cnn(C)c3C#N)cc12)c1ccc2c(n1)OCCO2 | 70% | 98% | 120% | 115% | 100% | 105% | 80% | 130%
4 | CC(C)[C@@H](Nc1ncnc2[nH]c(-c3cnn(C)c3C#N)cc12)c1ccc2c(n1)OCCO2 | 49% and 55% | 85% and 101% | 103% and 121% | 98% and 114% | 87% and 99% | 116% and 107% | 63% and 78% | 100% and 123%
5 | COc1ccc([C@H](Cc2nnn[nH]2)NC(=O)c2ncnc3[nH]ccc23)cc1 | 99% | 90% | 127% | 102% | 94% | 100% | 88% | 121%
6 | Cc1nn(C)cc1-c1cc2c(N[C@H](c3ccc4c(c3)S(=O)(=O)CCC4)C(C)C)ncnc2[nH]1 | 102% | 96% | 115% | 110% | 99% | 96% | 96% | 128%
7 | CNCc1cc(-c2cc3c(N[C@@H](c4ccc5c(c4)S(=O)(=O)CCC5)C(C)C)ncnc3[nH]2)co1 | 99% | 92% | 108% | 106% | 99% | 81% | 96% | 115%
8 | Cn1ncc(-c2cc3c(N[C@@H](c4ccc5c(n4)OCCO5)C(C)(C)C)ncnc3[nH]2)c1C#N | 75% | 98% | 115% | 110% | 94% | 110% | 88% | 127%
9 | COc1ccc([C@@H](Cc2nnn[nH]2)NC(=O)c2ncnc3[nH]ccc23)cc1 | 101% | 105% | 98% | 92% | 95% | 88% | 89% | 95%
10 | CC(C)[C@@H](Nc1ncnc2[nH]c(C(=O)N[C@@H]3CCN(C)C3)cc12)c1ccc2c(c1)S(=O)(=O)CCC2 | 104% | 93% | 122% | 108% | 100% | 107% | 97% | 116%
11 | CC(C)[C@H](Nc1ncnc2[nH]ccc12)c1ccc2c(c1)S(=O)(=O)CCC2 | 94% | 94% | 126% | 106% | 97% | 86% | 98% | 123%
12 | CNC(=O)Cn1cc(-c2cc3c(N[C@@H](c4ccc5c(c4)S(=O)(=O)CCC5)C(C)C)ncnc3[nH]2)cn1 | 102% | 98% | 112% | 111% | 97% | 89% | 93% | 120%
